The text below walks through data of article PMC5665883, “Antithrombotic properties of JJ1, a potent and novel thrombin inhibitor” (Scientific Reports, 2017).

The target of one assay is Streptokinase (Homo sapiens, UniProt P00747). The assay is described as follows: Chromogenic substrate assay, Ki (Dixon). It is filed as biochemical. Particulars: for Ki: Streptokinase.
The subject of assay [1] is human plasma. The assay is described as follows: In vitro aPTT clotting time. It is filed as biochemical. The conditions noted are these: in vitro, 5.0 μM. Here is the method:
(§1) The aPTT and PT were determined using a Thrombotimer (Behnk Elektronik, Norderstedt, Germany) in accordance with the manufacturer’s instructions and as previously described. Briefly, citrated normal human plasma (90 μL) was mixed with 10 μL JJ1 and incubated for 1 min at 37 °C. Subsequently, the aPTT assay reagent (100 μL) was added, the plasma sample was incubated for an additional 1 min at 37 °C, 20 mM CaCl2 (100 μL) was added, and the clotting times were recorded. For the PT assays, citrated normal human plasma (90 μL) was mixed with 10 μL JJ1 stock solution and was incubated for 1 min at 37 °C. The PT assay reagent (200 μL), which had been pre-incubated for 10 min at 37 °C, was subsequently added and the clotting time was recorded. The PT results were expressed in seconds and as International Normalized Ratios (INR): INR = (PT sample/PT control)^ISI, where ISI = international sensitivity index. The aPTT results were also expressed in seconds. All experimental protocols (KNUH 2012-01-010) were approved by the Institutional Review Board of Kyungpook National University Hospitals (Daegu, Republic of Korea).

Another assay addresses tPA (Homo sapiens, UniProt P00750). Kind of assay: Chromogenic substrate assay, Ki (Dixon). The conditions noted are these: for Ki: tPA. Type of assay: biochemical.
The next assay concerns the target Urokinase (Homo sapiens, UniProt P00749). The assay is described as follows: Chromogenic substrate assay, Ki (Dixon). It is filed as biochemical. The conditions noted are these: for Ki: Urokinase.
For the next assay, the target named is T1, Plasmin (Homo sapiens, UniProt P00747).
T1 construct: thrombin versus trypsin, factor Xa, elastase, plasmin, protein Ca, streptokinase, tPA, and urokinase
The assay is described as follows: Chromogenic substrate assay, Ki (Dixon). Type of assay: biochemical. The conditions noted are these: for Ki: Plasmin.

For another assay, the target named is Trypsin. Kind of assay: Chromogenic substrate assay, Ki (Dixon). Particulars: for Ki: Trypsin, mean ± SD (n = 5). It is filed as biochemical, human. Here is the method: (§2) Chromogenic substrate assays were performed using a Labsystems IEMS (Cergy Pontoise, France) microtiter plate reader. K i values were calculated according to the method of Dixon[65]. In each assay, the compound was tested at a minimum of seven concentrations, in duplicate, to obtain an inhibition curve. The following general procedures were adopted for each assay. In a 96-well microtiter plate, 25 μL of inhibitor solution or buffer was added to 50 μL of substrate. The enzyme solution (25 μL) was added just before the plate was placed in the microtiter plate reader for 1 h at 37 °C. The hydrolysis of the substrate yields p-nitroaniline, which was continuously monitored spectrophotometrically at 405 nm. The maximal initial reaction rates were calculated and expressed as millioptical density per minute.

Assay [2] in a line: FeCl3-induced arterial thrombosis model. It is filed as in vivo, C57BL/6 mice. Particulars: mice, 150 μg/mouse. Here is the method: The FeCl3-induced thrombosis mouse model was established as previously described. Male C57BL/6 mice were fasted overnight and were administered JJ1 in DMSO by intravenous injection. Then, mice were anesthetized using 3% isoflurane (Forane®, Choongwae Pharma. Corp., Seoul, Korea) and injected intravenously with 0.1 mL 0.1% rhodamine 6 G (Sigma). A testicular artery (200 μm in diameter) was carefully exposed and a cotton thread (200 μm in diameter) saturated with 0.25 mol/L FeCl3 was applied to the adventitial surface. After 5 min, the cotton thread was removed, and the wound was flushed with saline solution. Thrombus formation was monitored at 35 °C by 3-dimensional imaging as previously described. The size and time of thrombus formation were monitored, and the findings were scored as follows: no thrombus, 0; small thrombus (50 μm × 75 μm), 1; medium-sized thrombus (100 μm × 150 μm), 2; large thrombus (200 μm × 300 μm), 3. The time from FeCl3-mediated endothelial injury to occlusion of the testicular artery by a large thrombus was measured.

For a further assay, the target named is T2, Protein Ca (Homo sapiens, UniProt P04070).
T2 construct: thrombin versus trypsin, factor Xa, elastase, plasmin, protein Ca, streptokinase, tPA, and urokinase
The assay is described as follows: Chromogenic substrate assay, Ki (Dixon). It is filed as biochemical. The conditions noted are these: for Ki: Protein Ca.

For a further assay, the target named is T3, Factor Xa (Homo sapiens, UniProt P00742).
T3 construct: thrombin versus trypsin, factor Xa, elastase, plasmin, protein Ca, streptokinase, tPA, and urokinase; purchased Haematologic Technologies (Essex Junction, VT)
Kind of assay: Chromogenic substrate assay, Ki (Dixon). It is filed as biochemical. The conditions noted are these: for Ki: Factor Xa.

Assay [3] is described as follows: In vivo tail bleeding time. Also noted: species or system C57BL/6 mice. Particulars: mice, i.v. injection. Here is the method:
Tail bleeding times were measured by using the method of Dejana et al.[63],[64]. Briefly, C57BL/6 mice were fasted overnight prior to the experiments. One hour after the i.v. administration of JJ1, the tails of the mice were transected at 2 mm from their tips. The bleeding time was defined as the time elapsed until the bleeding stopped. Bleeding times exceeding 15 min were recorded as lasting for 15 min.

In assay [4] the test system is human plasma. Kind of assay: In vitro PT clotting time. Particulars: in vitro, 5.0 μM. Type of assay: biochemical. Here is the method:
as §1

Assay [5] relates to neuropeptide Y receptor type 5. Also noted: method as in PMID 21948594. The conditions noted are these: not reported in publications; cited from earlier work.
Details of assay [6]: method as in PMID 21948594. The conditions noted are these: not reported in publications; cited from earlier work.
Another assay concerns the target T4, Elastase (Homo sapiens, UniProt P08246).
T4 sequence (P08246 30-247): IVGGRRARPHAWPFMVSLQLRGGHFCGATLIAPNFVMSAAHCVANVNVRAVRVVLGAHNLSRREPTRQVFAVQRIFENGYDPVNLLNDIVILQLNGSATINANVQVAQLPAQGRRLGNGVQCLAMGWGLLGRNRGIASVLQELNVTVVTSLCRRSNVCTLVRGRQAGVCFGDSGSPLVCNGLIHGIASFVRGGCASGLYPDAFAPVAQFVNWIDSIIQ
Kind of assay: Chromogenic substrate assay, Ki (Dixon). Type of assay: biochemical. Particulars: K i Elastase/K i α-thrombin. Here is the method:
as §2

Assay [7] has as its system human plasma. Kind of assay: In vitro aPTT clotting time. Type of assay: biochemical. The conditions noted are these: at the maximum antithrombotic dose.
Assay [8] deals with human plasma. Kind of assay: In vitro PT clotting time. Type of assay: biochemical. The conditions noted are these: at the maximum antithrombotic dose.
For the next assay, the target named is T5, human α-thrombin (Homo sapiens, UniProt P00734).
T5 construct: purchased Haematologic Technologies (Essex Junction, VT)
The assay is described as follows: Chromogenic substrate assay, Ki (Dixon). It is filed as biochemical.

The target in assay [9] is T6, thrombin (Homo sapiens, UniProt P00734).
T6 construct: thrombin solution (150 μL, 10 U/mL) was added; purchased Haematologic Technologies (Essex Junction, VT)
Kind of assay: Thrombin activity assay (amidolytic activity, S-2238). Type of assay: biochemical. The conditions noted are these: α-Thrombin, chromogenic substrate; read-out: IC50, inhibition of amidolytic activity of thrombin (converted).
Procedure: Following a 2-min incubation at 37 °C, thrombin solution (150 μL, 10 U/mL) was added, followed by incubation at 37 °C for 1 min. A solution of the thrombin substrate, S-2238, (150 μL, 1.5 mM) solution was subsequently added and the absorbance at 405 nm was monitored for 120 s using a spectrophotometer (TECAN, Männedorf, Switzerland).

Assay [10] addresses T6, thrombin. The assay is described as follows: Enzyme-based assay of purchased virtual screening molecules, single dose. Type of assay: biochemical. Particulars: single concentration of 50 μM. The text has this: Prior to the high-throughput virtual screening, we selected the best crystal structure for docking with DOCK 3.6[17] using the selected inhibitors and their physicochemically matched but topologically different decoys. […] Because the earlier enrichment of true positives is more important for high throughput SBVS, we used the value of LogAUC as a metric, selecting 2CF9-H[18] as the best structure. […] Besides, the enrichment at 1% (EF1) was 37.1. The values of LogAUC and EF1 were approximately two-fold higher than the averages (26.1 for LogAUC and 17.1 for EF1) (Figs 1 and S1). Some structures had higher AUC values than that of 2CF9-H, but the value of LogAUC was the highest for 2CF9-H (Fig. S1). The optimization necessitated the calculations of more than 2 million protein and ligand pairs. The high speed of DOCK 3.6 and the in-house Linux cluster system consisting of 128 cores efficiently managed the calculations in three days. Of the candidate molecules having the lowest scores in the high-throughput SBVS, we chose the molecules with desirable geometries and physicochemical properties by a simple manual and visual inspection. […] It is known that the scoring function of virtual screening itself is insufficient to capture such an abnormality. Table S1 and Fig. S2 list the top 40 molecules, which were selected through high-throughput SBVS; we purchased these molecules to measure enzymatic inhibitory activity.

Marks after values point to notes of the source that are not given here.

Sequence of tPA (P00750 36-562): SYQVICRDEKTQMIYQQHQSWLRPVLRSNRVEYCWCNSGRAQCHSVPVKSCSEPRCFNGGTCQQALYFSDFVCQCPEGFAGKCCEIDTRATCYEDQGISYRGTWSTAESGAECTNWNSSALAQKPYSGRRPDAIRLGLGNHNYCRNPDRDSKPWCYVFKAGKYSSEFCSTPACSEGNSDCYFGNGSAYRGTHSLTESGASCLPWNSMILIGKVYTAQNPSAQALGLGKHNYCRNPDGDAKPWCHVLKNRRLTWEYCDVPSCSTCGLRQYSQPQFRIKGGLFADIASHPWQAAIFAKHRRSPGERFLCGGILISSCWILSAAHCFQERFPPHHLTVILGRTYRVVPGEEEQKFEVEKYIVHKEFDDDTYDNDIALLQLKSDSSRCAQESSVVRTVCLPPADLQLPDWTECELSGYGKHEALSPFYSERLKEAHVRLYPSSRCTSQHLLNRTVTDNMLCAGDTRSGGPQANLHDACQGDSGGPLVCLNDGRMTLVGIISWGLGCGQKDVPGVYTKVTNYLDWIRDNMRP
T3 sequence (P00742 235-488 limits assumed): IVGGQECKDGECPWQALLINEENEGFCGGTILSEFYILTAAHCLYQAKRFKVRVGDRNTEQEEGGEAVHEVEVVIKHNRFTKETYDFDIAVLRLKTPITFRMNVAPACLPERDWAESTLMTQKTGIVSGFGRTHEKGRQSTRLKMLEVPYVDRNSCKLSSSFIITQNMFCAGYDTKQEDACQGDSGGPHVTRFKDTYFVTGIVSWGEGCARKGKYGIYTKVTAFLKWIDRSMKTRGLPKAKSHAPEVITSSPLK
T3 sequence (P00742 41-179 limits assumed): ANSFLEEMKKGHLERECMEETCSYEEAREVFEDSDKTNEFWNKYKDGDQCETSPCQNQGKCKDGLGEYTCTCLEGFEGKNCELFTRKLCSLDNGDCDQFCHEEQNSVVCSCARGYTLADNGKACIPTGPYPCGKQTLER
T2 sequence (P04070 212-450 limits assumed): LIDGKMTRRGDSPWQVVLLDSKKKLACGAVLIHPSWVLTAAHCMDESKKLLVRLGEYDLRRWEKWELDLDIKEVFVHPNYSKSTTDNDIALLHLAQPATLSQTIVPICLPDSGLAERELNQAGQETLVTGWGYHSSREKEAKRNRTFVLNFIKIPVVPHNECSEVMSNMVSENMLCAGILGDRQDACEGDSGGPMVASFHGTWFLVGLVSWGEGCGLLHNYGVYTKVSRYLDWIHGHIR
T2 sequence (P04070 43-197 limits assumed): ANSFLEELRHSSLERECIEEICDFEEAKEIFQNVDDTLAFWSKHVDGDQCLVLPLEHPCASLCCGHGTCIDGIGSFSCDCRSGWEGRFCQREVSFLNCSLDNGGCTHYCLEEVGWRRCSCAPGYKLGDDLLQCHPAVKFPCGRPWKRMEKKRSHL
Sequence of Streptokinase (P00747 581-810 limits assumed): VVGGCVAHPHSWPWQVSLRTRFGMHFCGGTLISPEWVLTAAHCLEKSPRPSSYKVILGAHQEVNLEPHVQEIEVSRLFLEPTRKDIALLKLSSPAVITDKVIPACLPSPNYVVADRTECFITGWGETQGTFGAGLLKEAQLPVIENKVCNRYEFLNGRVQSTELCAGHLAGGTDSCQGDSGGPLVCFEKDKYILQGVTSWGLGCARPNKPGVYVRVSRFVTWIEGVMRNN
T1 sequence (P00747 581-810 limits assumed): as above
T1 sequence (P00747 97-580 limits assumed): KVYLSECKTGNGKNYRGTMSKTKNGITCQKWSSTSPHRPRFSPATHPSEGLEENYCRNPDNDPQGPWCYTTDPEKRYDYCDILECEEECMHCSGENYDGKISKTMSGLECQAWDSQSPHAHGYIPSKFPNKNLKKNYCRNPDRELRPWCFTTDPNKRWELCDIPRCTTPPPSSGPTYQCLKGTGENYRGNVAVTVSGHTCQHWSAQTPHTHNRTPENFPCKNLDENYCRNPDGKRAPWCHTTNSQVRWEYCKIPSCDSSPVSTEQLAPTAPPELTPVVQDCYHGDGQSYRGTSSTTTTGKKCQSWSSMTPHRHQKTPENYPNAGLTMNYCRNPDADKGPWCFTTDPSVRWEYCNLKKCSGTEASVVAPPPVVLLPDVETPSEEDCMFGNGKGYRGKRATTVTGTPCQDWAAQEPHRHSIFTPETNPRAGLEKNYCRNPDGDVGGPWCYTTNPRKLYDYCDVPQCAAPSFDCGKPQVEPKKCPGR

Usually Ki stands for a dissociation constant, usually derived from enzyme kinetics or from competition with a known ligand. A high value points to a looser hold on the target. `CC1CNc2c(cccc2S(=O)(=O)N[C@@H](CCCNC(=N)N)C(=O)N2CC[C@@H](C)C[C@@H]2C(=O)O)C1` (stereo partly drawn) [Argatroban]: the inhibition constant Ki at Streptokinase was above 250000 nM; on tPA, above 250000 nM; at Urokinase, above 250000 nM; on Plasmin, above 250000 nM; on Trypsin, 4200 ± 500 nM; on Protein Ca it was above 250000 nM. Also, the Ki at Factor Xa is above 250000 nM. The aPTT in the assay with human plasma [1] came out at 61.4 ± 0.8 s. In addition, the Thrombus size score in assay [2] (60 min after FeCl3-treatment, score 0-3) was found to be 1.15 ± 0.12. For the same compound, the “Time to large thrombus formation” value in [2] (FeCl3-induced thrombosis) is on record as 61.2 ± 5.1 min. The Tail bleeding time in assay [3] (5.08 μg/mouse) is recorded as 62.2 ± 0.8 s. For the same compound, the PT in the assay on human plasma [4] worked out at 27.4 ± 0.7 s. Also, the “PT (INR)” value with human plasma [4] was 7.40* INR.

Turning to `c1ccc(Nc2nc(NC3CCCCC3)nc3ccccc23)cc1` [CHEMBL17914], the “Activity linked in ChEMBL” value in [5] was “linked with the inhibition of neuropeptide Y receptor type 5”.

As for `c1ccc2c(NC3CCCC3)nc(Nc3ccc4c(c3)OCO4)nc2c1` [CHEMBL578118], in assay [6], the “Activity linked in ChEMBL” value is “antimalarial effects”.

Take `Oc1ccccc1Nc1nc(NC2CCCC2)c2ccccc2n1` [CHEMBL581623]: in assay [6], the “Activity linked in ChEMBL” value is on record as “antimalarial effects”.

For orientation: IC50 means the point on the concentration scale where inhibition reaches its midpoint. Consider `CN[C@H](Cc1ccccc1)C(=O)N1CCC[C@H]1C(=O)N[C@H](C=O)CCCN=C(N)N` [Efegatran], for which the Selectivity ratio was 82 on Streptokinase; 88 at tPA; 147 at Urokinase; 28 at Plasmin; 0.65 with Trypsin (K i Trypsin/K i α-thrombin); >14,000 on Elastase. The Selectivity ratio at Protein Ca is 70; at Factor Xa it was 5411; on human α-thrombin (K i enzyme/K i α-thrombin) it was 1. Further, the Ki at Streptokinase came to 1400 ± 110 nM; at tPA it was 1500 ± 300 nM; at Urokinase it was 2500 ± 300 nM; on Plasmin it was 480 ± 40 nM; on Trypsin it was 11 ± 4.1 nM; at Protein Ca, 1200 ± 150 nM. Further, the inhibition constant Ki worked out at 92000 ± 9000 nM on Factor Xa and 17 ± 0.3 nM on human α-thrombin (mean ± SD (n = 5)). The compound further gave an aPTT in the assay with human plasma [1] of 44.2 ± 0.6 s. Moreover, the “Prolongation of aPTT” value in the assay on human plasma [7] amounted to 1.86 fold. For the same compound, the “Prolongation of PT” value in the assay on human plasma [8] is recorded as 1.61 fold. This compound also registered a Tail bleeding time in assay [3] (4.17 μg/mouse) of 47.4 ± 1.1 s. Also, on thrombin [9], the concentration for half-maximal inhibition (IC50) is 25 nM. The PT with human plasma [4] was 19.2 ± 0.4 s. For the same compound, the “PT (INR)” value with human plasma [4] is given as 3.15* INR.

For the compound `CCN(c1cccc(C)c1)S(=O)(=O)c1cc([N+](=O)[O-])ccc1C` [ZINC04991109], the “Degree of inhibition in the enzyme-based assay” value on thrombin [10] is recorded as “inhibitory effects”.

For `COc1ccc(C(=O)NCc2ccco2)cc1S(=O)(=O)N1CCCCC1` [ZINC09063750], the “Degree of inhibition in the enzyme-based assay” value at thrombin [10] is “inhibitory effects”.
